We go through nine molecules from paper PMC7830303, “Development of Antimicrobial Stapled Peptides Based on Magainin 2 Sequence” (Molecules, 2021).

In assay [1] the test system is multiple-drug resistant P. aeruginosa (MDRP). Format: cell-based, Pseudomonas aeruginosa. The following applies: multiple-drug resistant (MDRP, 16 h). The procedure: (§1) Selected bacterial strains were obtained from Biological Resource Center, NITE (NBRC; Tokyo, Japan). E. coli DH5α was purchased from BioDynamics Laboratory, Inc. (Tokyo, Japan). The antimicrobial activities of the peptides against the gram-positive S. aureus and gram-negative E. coli DH5α, P. aeruginosa, and MDRP were measured using standard broth microdilution method as previously described. Briefly, the bacteria were inoculated and grown overnight at 37 °C on agar media for other organisms i and then collected with liquid media for other organisms ii, according to Japanese Pharmacopoeia, 17th Edition. Each peptide was 2-fold serially diluted with an initial concentration of 500 μM to a final concentration of 1 μM using PBS. Then, 10 μL of the peptide solution was added to each well of a sterile 96-well plate. Subsequently, 90 μL of inoculation with 10^4 colony forming units (CFUs) per mL were added to each well, and the plate was incubated at 35 °C for 16 h.

Another assay concerns Staphylococcus aureus. The class given is cell-based. Conditions: 16 h. The procedure: as §1
Another assay relates to Escherichia coli DH5α. The class given is cell-based. The following applies: 16 h. The procedure: as §1
The subject of the next assay is Pseudomonas aeruginosa. The class given is cell-based. The following applies: 16 h. The protocol:
as §1

Converted amounts (≈) assume the structure as drawn. Bridge positions count the residues as written; N and C are the ends. Square brackets hold non-standard residues; d marks the D form. Peptide text beside a SMILES is read from it. * marks the point of attachment. R8 = C=CCCCCCC[C@@](C)(N)C(=O)O; Lauroyl = CCCCCCCCCCCC(=O)*; S5 = C=CCCC[C@](C)(N)C(=O)O; Hexanoyl = CCCCCC(=O)* A value given as a limit tells only on which side of the number the result lay.

For `CC[C@H](C)[C@H](NC(=O)CN)C(=O)N[C@@H](CCCCN)C(=O)N[C@@H](CCCCN)C(=O)N[C@@H](Cc1ccccc1)C(=O)N[C@@H](CC(C)C)C(=O)N[C@@H](CCCCN)C(=O)N[C@]1(C)CCCCCCC=CCCC[C@@](C)(C(=O)N[C@@H](Cc2ccccc2)C(=O)N[C@@H](CCCCN)C(N)=O)NC(=O)[C@H](CCCCN)NC(=O)[C@H](C(C)C)NC(=O)[C@H](Cc2ccccc2)NC(=O)[C@H](CCCCN)NC(=O)[C@H](CCCCN)NC(=O)[C@H](C)NC1=O` [Peptide 8] (H-GIKKFLK[R8]AKKFVK[S5]FK-NH2; staple 8-15), in assay [1], the “MIC, Gram Negative, MDRP” value amounted to 3.125 µM (≈ 6.57 µg/mL). In addition, the “MIC, Gram Positive, S.a.” value against Staphylococcus aureus is given as more than 50 µM. Also, in the assay on Escherichia coli DH5α, the “MIC, Gram Negative, E.c. (DH5α)” value is reported as 6.25 µM (≈ 13.1 µg/mL). Also, the “MIC, Gram Negative, P.a.” value against Pseudomonas aeruginosa is on record as more than 50 µM.
For the molecule `CC[C@H](C)[C@H](NC(=O)CN)C(=O)N[C@@H](CCCCN)C(=O)N[C@@H](CCCCN)C(=O)N[C@@]1(C)CCCC=CCCC[C@@](C)(C(=O)N[C@@H](CCCCN)C(=O)N[C@@H](CCCCN)C(=O)N[C@@H](Cc2ccccc2)C(=O)N[C@H](C(=O)N[C@@H](CCCCN)C(=O)N[C@@H](C)C(=O)N[C@@H](Cc2ccccc2)C(=O)N[C@@H](CCCCN)C(N)=O)C(C)C)NC(=O)[C@H](CO)NC(=O)[C@H](CCCCN)NC(=O)[C@H](CC(C)C)NC1=O` [Peptide 3] (H-GIKK[S5]LKS[S5]KKFVKAFK-NH2; staple 5-9), the “MIC, Gram Negative, MDRP” value in assay [1] was 0.78 µM (≈ 1.56 µg/mL). Besides, the “MIC, Gram Positive, S.a.” value against Staphylococcus aureus came to 3.125 µM (≈ 6.25 µg/mL). Moreover, the “MIC, Gram Negative, E.c. (DH5α)” value against Escherichia coli DH5α worked out at 1.56 µM (≈ 3.12 µg/mL). Also, the “MIC, Gram Negative, P.a.” value in the assay on Pseudomonas aeruginosa is 3.125 µM (≈ 6.25 µg/mL).
For the molecule `CC[C@H](C)[C@H](NC(=O)CN)C(=O)N[C@@H](CCCCN)C(=O)N[C@@H](CCCCN)C(=O)N[C@]1(C)CCCCCCC=CCCC[C@@](C)(C(=O)N[C@H](C(=O)N[C@@H](CCCCN)C(=O)N[C@@H](C)C(=O)N[C@@H](Cc2ccccc2)C(=O)N[C@@H](CCCCN)C(N)=O)C(C)C)NC(=O)[C@H](CCCCN)NC(=O)[C@H](CCCCN)NC(=O)[C@H](C)NC(=O)[C@H](CO)NC(=O)[C@H](CCCCN)NC(=O)[C@H](CC(C)C)NC1=O` [Peptide 7] (H-GIKK[R8]LKSAKK[S5]VKAFK-NH2; staple 5-12), the “MIC, Gram Negative, MDRP” value in assay [1] is 1.56 µM (≈ 3.07 µg/mL). The “MIC, Gram Positive, S.a.” value in the assay on Staphylococcus aureus came to 25 µM (≈ 49.1 µg/mL). Also, the “MIC, Gram Negative, E.c. (DH5α)” value against Escherichia coli DH5α was found to be 3.125 µM (≈ 6.14 µg/mL). The “MIC, Gram Negative, P.a.” value in the assay on Pseudomonas aeruginosa was 3.125 µM (≈ 6.14 µg/mL).
Regarding `CCCCCCCCCCCC(=O)N[C@@]1(C)CCCC=CCCC[C@@](C)(C(=O)N[C@@H](CC(C)C)C(=O)N[C@@H](CCCCN)C(=O)N[C@@H](CO)C(=O)N[C@@H](C)C(=O)N[C@@H](CCCCN)C(=O)N[C@@H](CCCCN)C(=O)N[C@@H](Cc2ccccc2)C(=O)N[C@H](C(=O)N[C@@H](CCCCN)C(=O)N[C@@H](C)C(=O)N[C@@H](Cc2ccccc2)C(=O)N[C@@H](CCCCN)C(N)=O)C(C)C)NC(=O)[C@H](CCCCN)NC(=O)[C@H](CCCCN)NC(=O)[C@H]([C@@H](C)CC)NC1=O` [Peptide C12-2] (Lauroyl-[S5]IKK[S5]LKSAKKFVKAFK-NH2; staple 1-5), the “MIC, Gram Negative, MDRP” value in assay [1] came to 25 µM (≈ 54.9 µg/mL). Also, in the assay with Staphylococcus aureus, the “MIC, Gram Positive, S.a.” value is listed as 6.25 µM (≈ 13.7 µg/mL). Further, in the assay on Escherichia coli DH5α, the “MIC, Gram Negative, E.c. (DH5α)” value was determined as 6.25 µM (≈ 13.7 µg/mL). For the same molecule, the “MIC, Gram Negative, P.a.” value with Pseudomonas aeruginosa is reported as 12.5 µM (≈ 27.4 µg/mL).
On to `CC[C@H](C)[C@H](NC(=O)CN)C(=O)N[C@@H](CCCCN)C(=O)N[C@@H](CCCCN)C(=O)N[C@@H](Cc1ccccc1)C(=O)N[C@@H](CC(C)C)C(=O)N[C@@H](CCCCN)C(=O)N[C@@H](CO)C(=O)N[C@]1(C)CCCCCCC=CCCC[C@@](C)(C(=O)N[C@@H](CCCCN)C(N)=O)NC(=O)[C@H](C)NC(=O)[C@H](CCCCN)NC(=O)[C@H](C(C)C)NC(=O)[C@H](Cc2ccccc2)NC(=O)[C@H](CCCCN)NC(=O)[C@H](CCCCN)NC1=O` [Peptide 9] (H-GIKKFLKS[R8]KKFVKA[S5]K-NH2; staple 9-16), for which the “MIC, Gram Negative, MDRP” value in assay [1] is 3.125 µM (≈ 6.38 µg/mL). Moreover, in the assay on Staphylococcus aureus, the “MIC, Gram Positive, S.a.” value came out at 6.25 µM (≈ 12.8 µg/mL). The “MIC, Gram Negative, E.c. (DH5α)” value with Escherichia coli DH5α was 3.125 µM (≈ 6.38 µg/mL). In addition, in the assay on Pseudomonas aeruginosa, the “MIC, Gram Negative, P.a.” value was determined as 6.25 µM (≈ 12.8 µg/mL).
As to `CCCCCC(=O)N[C@@]1(C)CCCC=CCCC[C@@](C)(C(=O)N[C@@H](CC(C)C)C(=O)N[C@@H](CCCCN)C(=O)N[C@@H](CO)C(=O)N[C@@H](C)C(=O)N[C@@H](CCCCN)C(=O)N[C@@H](CCCCN)C(=O)N[C@@H](Cc2ccccc2)C(=O)N[C@H](C(=O)N[C@@H](CCCCN)C(=O)N[C@@H](C)C(=O)N[C@@H](Cc2ccccc2)C(=O)N[C@@H](CCCCN)C(N)=O)C(C)C)NC(=O)[C@H](CCCCN)NC(=O)[C@H](CCCCN)NC(=O)[C@H]([C@@H](C)CC)NC1=O` [Peptide C6-2] (Hexanoyl-[S5]IKK[S5]LKSAKKFVKAFK-NH2; staple 1-5), the “MIC, Gram Negative, MDRP” value in assay [1] turned out to be 3.125 µM (≈ 6.6 µg/mL). Besides, the “MIC, Gram Positive, S.a.” value with Staphylococcus aureus came to 1.56 µM (≈ 3.29 µg/mL). Also, the “MIC, Gram Negative, E.c. (DH5α)” value in the assay with Escherichia coli DH5α turned out to be 1.56 µM (≈ 3.29 µg/mL). Also, the “MIC, Gram Negative, P.a.” value with Pseudomonas aeruginosa worked out at 3.125 µM (≈ 6.6 µg/mL).
Turning to `CC[C@H](C)[C@H](NC(=O)CN)C(=O)N[C@@H](CCCCN)C(=O)N[C@@H](CCCCN)C(=O)N[C@@H](Cc1ccccc1)C(=O)N[C@@H](CC(C)C)C(=O)N[C@@H](CCCCN)C(=O)N[C@@]1(C)CCCC=CCCC[C@@](C)(C(=O)N[C@H](C(=O)N[C@@H](CCCCN)C(=O)N[C@@H](C)C(=O)N[C@@H](Cc2ccccc2)C(=O)N[C@@H](CCCCN)C(N)=O)C(C)C)NC(=O)[C@H](CCCCN)NC(=O)[C@H](CCCCN)NC(=O)[C@H](C)NC1=O` [Peptide 4] (H-GIKKFLK[S5]AKK[S5]VKAFK-NH2; staple 8-12), the “MIC, Gram Negative, MDRP” value in assay [1] came to 0.78 µM (≈ 1.55 µg/mL). Besides, the “MIC, Gram Positive, S.a.” value in the assay on Staphylococcus aureus worked out at 6.25 µM (≈ 12.4 µg/mL). For the same molecule, the “MIC, Gram Negative, E.c. (DH5α)” value in the assay with Escherichia coli DH5α was determined as 1.56 µM (≈ 3.09 µg/mL). Also, the “MIC, Gram Negative, P.a.” value in the assay on Pseudomonas aeruginosa is reported as 1.56 µM (≈ 3.09 µg/mL).
Take `CC[C@H](C)[C@H](NC(=O)CN)C(=O)N[C@@H](CCCCN)C(=O)N[C@@H](CCCCN)C(=O)N[C@@H](Cc1ccccc1)C(=O)N[C@@H](CC(C)C)C(=O)N[C@@H](CCCCN)C(=O)N[C@@H](CO)C(=O)N[C@@]1(C)CCCC=CCCC[C@@](C)(C(=O)N[C@@H](CCCCN)C(=O)N[C@@H](C)C(=O)N[C@@H](Cc2ccccc2)C(=O)N[C@@H](CCCCN)C(N)=O)NC(=O)[C@H](Cc2ccccc2)NC(=O)[C@H](CCCCN)NC(=O)[C@H](CCCCN)NC1=O` [Peptide 5] (H-GIKKFLKS[S5]KKF[S5]KAFK-NH2; staple 9-13): in assay [1], the “MIC, Gram Negative, MDRP” value is 3.125 µM (≈ 6.4 µg/mL). Moreover, in the assay on Staphylococcus aureus, the “MIC, Gram Positive, S.a.” value was found to be 12.5 µM (≈ 25.6 µg/mL). In addition, the “MIC, Gram Negative, E.c. (DH5α)” value against Escherichia coli DH5α was 1.56 µM (≈ 3.19 µg/mL). The “MIC, Gram Negative, P.a.” value in the assay on Pseudomonas aeruginosa stood at 6.25 µM (≈ 12.8 µg/mL).
`CC[C@H](C)[C@@H]1NC(=O)[C@@](C)(N)CCCC=CCCC[C@@](C)(C(=O)N[C@@H](CC(C)C)C(=O)N[C@@H](CCCCN)C(=O)N[C@@H](CO)C(=O)N[C@@H](C)C(=O)N[C@@H](CCCCN)C(=O)N[C@@H](CCCCN)C(=O)N[C@@H](Cc2ccccc2)C(=O)N[C@H](C(=O)N[C@@H](CCCCN)C(=O)N[C@@H](C)C(=O)N[C@@H](Cc2ccccc2)C(=O)N[C@@H](CCCCN)C(N)=O)C(C)C)NC(=O)[C@H](CCCCN)NC(=O)[C@H](CCCCN)NC1=O` [Peptide 2] (H-[S5]IKK[S5]LKSAKKFVKAFK-NH2; staple 1-5): in assay [1], the “MIC, Gram Negative, MDRP” value is listed as 1.56 µM (≈ 3.14 µg/mL). The “MIC, Gram Positive, S.a.” value in the assay on Staphylococcus aureus is listed as 3.125 µM (≈ 6.29 µg/mL). In addition, the “MIC, Gram Negative, E.c. (DH5α)” value with Escherichia coli DH5α was 1.56 µM (≈ 3.14 µg/mL). Moreover, the “MIC, Gram Negative, P.a.” value in the assay on Pseudomonas aeruginosa stood at 1.56 µM (≈ 3.14 µg/mL).
